The values below come from article PMC11748689, “Pharmacological and structural understanding of the Trypanosoma cruzi proteasome provides key insights for developing site-specific inhibitors” (The Journal of Biological Chemistry, 2024).

Each structure is given as a SMILES string.

The target of test [1] is recombinant Δβ1Δβ2 mutant T. cruzi proteasome (chymotrypsin-like activity) (Trypanosoma cruzi, UniProt V5BU39+V5C017). The test is described as follows: biochemical. The test is classed as biochemical. The protocol: (§1) Point mutations were created in individual subunits using overlapping PCR from the original templates using Polh and Tn7L primers outside the genes and suitable internal primers to introduce selected mutations. For Δβ1Δβ2, β1 Thr 55, and β2 Thr 67 were both mutated to Ala, the β4^R mutant was produced by mutating Phe 24 and Ile 29 to Leu and Met respectively in β4 subunit.
(§2) Chymotrypsin-, trypsin-, and caspase-like activity assays were performed using a commercially available Proteasome-Glo 3-substrate system assay kit (catalog number G8532) (Promega Corporation) according to the manufacturers protocols and as previously described ([24]).
(§3) Prior to running assays, Proteasome-Glo buffer was used to reconstitute the luciferin detection reagent (containing a recombinant thermostable luciferase enzyme). The resuspended luciferin detection reagent was then mixed with Proteasome-Glo chymotrypsin-, trypsin- or caspase-like substrates (either 40 μM suc-Leu-Leu-Val-Tyr-aminoluciferin, 30 μM Z-Leu-Arg-Arg-aminoluciferin (Z is benzyloxycarbonyl) or 40 μM Z-Nle-Pro-Nle-Asp-aminoluciferin respectively (these concentrations represent 2x final assay concentrations)). These substrate mixtures were allowed to incubate at room temperature for 60 min prior to use to allow the removal of any contaminating free aminoluciferin.
(§4) Proteasome assays were carried out using 384-well, white, low-volume plates (catalog number 784904) (Greiner Bio-One) at room temperature (∼23 °C) in 8 μl reaction volumes. When activity checks were to be run in the presence or absence of a fixed concentration of proteasome inhibitor, 80 nL of the inhibitor (at a concentration 100x the required final assay concentration), or 80 nL dimethylsulfoxide (DMSO), were dispensed into assay plates using an Echo 550 acoustic dispenser (Labcyte).
(§5) A 1 in 2 dilution series of the various T. cruzi proteasome samples (native, recombinant WT, β4^R mutant, and Δβ1Δβ2 mutant) were produced in assay buffer (50 mM Tris–HCl, pH 7.5, 10 mM sucrose, 5 mM MgCl2, 1 mM DTT, 2 mM ATP, 150 mM NaCl, 1 mM EDTA, and 0.05 mg/ml bovine serum albumin). Subsequently, 4 μl of the various concentrations of diluted proteasome were added to assay plates using an electronic multichannel pipette (Integra Biosciences Ltd). When kinetic read activity checks were performed (Fig. 2), proteasome final assay concentrations used were 115 μg/ml, 115 μg/ml, and 230 μg/ml native proteasome (in the chymotrypsin, trypsin, and caspase assays, respectively), and 4.1 μg/ml, 3.4 μg/ml, or 1.4 μg/ml recombinant WT proteasome (in the chymotrypsin, trypsin, and caspase assays, respectively). When activity checks were to be run in the presence or absence of a proteasome inhibitor plates containing inhibitor or DMSO control were incubated with the relevant proteasome sample for 60 min at room temperature (this step was not included in activity check experiments where compounds were not used).
(§6) Following the 60 min incubation of proteasome and compound (if required), assays were initiated with the addition of 4 μl of substrate mix (containing substrate and the luciferin detection reagent) using an electronic multichannel pipette. Final assay concentrations of substrates used were either 20 μM Suc-Leu-Leu-Val-Tyr-aminoluciferin, 15 μM Z-Leu-Arg-Arg-aminoluciferin, or 20 μM Z-Nle-Pro-Nle-Asp-aminoluciferin for chymotrypsin-, trypsin- or caspase-like activity respectively.
(§7) Luminescence was read either kinetically or as an endpoint read using an EnVision 2102 Multilabel Reader (PerkinElmer, Inc) with 0.2 s per well reading time. When kinetic assays were run, luminescence was read every 5 min for 90 min. Endpoint assays were run for 60 min before luminescence was read. All data processing and linear fit analyses were performed using Microsoft Excel for Microsoft 365 software (Redmond, Washington; https://www.microsoft.com/).

In test [2] the target is recombinant β4^R mutant T. cruzi proteasome (chymotrypsin-like activity) (Trypanosoma cruzi, UniProt V5BU39+V5C017, F24L/I29M). In words: biochemical. The test is classed as biochemical. The protocol: as §1, §2, §3, §4, §5, §6, §7
For test [3], the target named is recombinant WT T. cruzi proteasome (chymotrypsin-like activity, β5) (Trypanosoma cruzi, UniProt V5BU39+V5C017). In words: biochemical. The test is classed as biochemical. The note with it: for maximum % inhibition plateau, Chymotrypsin Assay, Wild-type: mean ± SD, N = 3 (N = 2 for DDD02091966), (a) mid-point plateau from biphasic curve fits. The protocol: as §2, §3, §4, §5, §6, §7
(§8) When proteasome inhibitors were to be screened in the chymotrypsin, trypsin, and caspase assays, test compounds were dispensed into assay wells using an ECHO 550 acoustic dispenser (Labcyte) (final DMSO concentration 1%). Compounds were tested in either a 10-point concentration series (30 μM top final assay concentration, 1 in 3 dilution series) or a 12-point concentration series (30 μM top final assay concentration, 1 in 2.5 dilution series).

The subject of test [4] is intracellular T. cruzi Silvio X10/7 A1 amastigotes. The test is described as follows: Intracellular T. cruzi assay. In kind it is cell-based. The note with it: Trypanosoma cruzi; 96 h compound treatment, Vero host cells; given as [mean pEC50, SD, N]; read-out: Mean pEC50 against intracellular T. cruzi parasites (converted). The protocol: Potency against intracellular T. cruzi Silvio X10/7 A1 amastigotes was determined as described previously ([53]), with a sole modification that the compound treatment duration was 96 h instead of 72 h. Vero host cells were obtained from The European Collection of Authenticated Cell Cultures (cat. number 84113001) and tested for mycoplasma (negative). T. cruzi Silvio X10/7 A1 was obtained from Prof. Alan Fairlamb, and discrete typing unit confirmed by genotyping ([53]).

Test [5] deals with recombinant β4^R mutant T. cruzi proteasome (trypsin-like activity) (Trypanosoma cruzi, UniProt V5BCU3). In kind it is biochemical. As to conditions: mean ± SD, N = 3. The protocol:
as §1, §2, §3, §4, §5, §6, §7

The target of test [6] is recombinant WT T. cruzi proteasome (trypsin-like activity, β2) (Trypanosoma cruzi, UniProt V5BCU3). In words: biochemical. In kind it is biochemical. The note with it: mean ± SD, N = 3; read-out: pIC50, Trypsin Assay, Wild-type (converted). Here is the method:
as §2, §3, §8
(§9) Proteasome assays were then performed as described above using Promega Proteasome-Glo 3-substrate system assay kit. […] Diluted proteasome (4 μl) was added to assay plates using an electronic multichannel pipette (Integra Biosciences Ltd) and the proteasome incubated with compound for 60 min at room temperature.
(§10) Following the 60 min incubation of proteasome and compounds, assays were initiated with the addition of 4 μl of a substrate mix (containing substrate and the luciferin detection reagent) using an electronic multichannel pipette. Final assay concentrations of substrates used were either 20 μM Suc-Leu-Leu-Val-Tyr-aminoluciferin, 15 μM Z-Leu-Arg-Arg-aminoluciferin, or 20 μM Z-Nle-Pro-Nle-Asp-aminoluciferin for chymotrypsin-, trypsin-, or caspase-like activity, respectively. Following a further 60 min assay incubation, luminescence was read using an EnVision 2102 Multilabel Reader (PerkinElmer, Inc) with 0.2 s per well reading time.
(§11) All data processing was performed using Microsoft Excel for Microsoft 365 software.
(§12) Nonlinear dose-response curve fitting was carried out using the Microsoft Excel add-in, XLfit (IDBS). Percentage inhibition data were either fitted to a standard 4-parameter logistic fit model (XLfit model 205; Equation 2) or a biphasic model (either XLfit model 300; Equation 3 or a custom biphasic model; Equation 4 (used in cases where the top and/or bottom parameters deviated from 100%/0% inhibition)).(2) y=A+(B−A)/1+(C/x)^D Where A = % inhibition at bottom, B = % inhibition at top, C = IC50, D = slope, x = inhibitor concentration and y = % inhibition.(3) y=(A/(1+10^(C−log(x))∗B))+((100−A)/(1+10^(D−log(x))∗B)) With A = % inhibition at midplateau, B = slope, C = log(IC50^A), D = log(IC50^B)).
(§13) All IC50 data generated were converted to pIC50 using Equation 5.

Test [7] has as its target recombinant WT T. cruzi proteasome (caspase-like activity, β1) (Trypanosoma cruzi, UniProt V5BHX1). In words: Caspase-like activity assay (Proteasome-Glo), recombinant wild-type T. cruzi proteasome. In kind it is biochemical. The protocol:
as §2, §3, §8, §9, §10, §11, §12, §13

Test [8] has as its target recombinant β4^R mutant T. cruzi proteasome (caspase-like activity) (Trypanosoma cruzi, UniProt V5BHX1). The test is described as follows: Caspase-like activity assay (Proteasome-Glo), recombinant β4^R mutant T. cruzi proteasome. In kind it is biochemical. Here is the method:
as §1, §2, §3, §4, §5, §6, §7

In test [9] the target is native T. cruzi proteasome (chymotrypsin-like activity, β5) (Trypanosoma cruzi, UniProt V5BU39+V5C017). In words: Chymotrypsin-like activity assay (Proteasome-Glo), native T. cruzi proteasome. In kind it is biochemical. Here is the method: as §2, §3, §8, §9, §10, §11, §12, §13
Test [10] addresses native T. cruzi proteasome (caspase-like activity, β1) (Trypanosoma cruzi, UniProt V5BHX1). In words: Caspase-like activity assay (Proteasome-Glo), native T. cruzi proteasome. In kind it is biochemical. The note with it: mean ± SD, N = 3; read-out: pIC50, Caspase Assay, Native (converted). Here is the method:
as §2, §3, §8, §9, §10, §11, §12, §13

The target of test [11] is native T. cruzi proteasome (trypsin-like activity, β2) (Trypanosoma cruzi, UniProt V5BCU3). In words: Trypsin-like activity assay (Proteasome-Glo), native T. cruzi proteasome. In kind it is biochemical. The note with it: mean ± SD, N = 3; read-out: pIC50, Trypsin Assay, Native (converted). Here is the method:
as §2, §3, §8, §9, §10, §11, §12, §13

As to `CNC(=O)c1cc(NC(=O)c2ccc(=O)n(Cc3ccc(OC)cc3)n2)ccc1F` [DDD02097487], the IC50 is 155 nM in test [1]; > 30200 nM in test [2]; 178 nM in test [3]; > 30200 nM in [6]; > 30200 nM in test [7]; > 30200 nM in [8]. In addition, the IC50 was 120 nM in [9], > 30200 nM in [10] and > 30200 nM in test [11]. Also, the “extent of inhibition in chymotrypsin dose-response curve, Δβ1Δβ2 mutant” value in [1] (top of dose-response curve) is given as “unable to fully inhibit”. Besides, the “maximum % inhibition plateau, Chymotrypsin Assay, Wild-type” value in [3] is on record as 48.2 ± 3.6%. The EC50 in [4] is 794 nM. Moreover, the “pIC50, Trypsin Assay, β4^R mutant” value in test [5] is <4.52.

`O=C(Nc1ccc(F)c(-c2cn3nc(N4CCOCC4)cnc3n2)c1)N1CCCC1` [DDD01012247]: the IC50 is 19.5 nM in [1]; 6920 nM in test [2]; 16.2 nM in test [3]; > 30200 nM in [6]; > 30200 nM in [7]; > 30200 nM in test [8]. Moreover, the results for the IC50 in test [9], in test [10] and in [11] were 12 nM, > 30200 nM and > 30200 nM, respectively. Besides, the “maximum % inhibition plateau, Chymotrypsin Assay, Wild-type” value in test [3] is listed as 68.9 ± 3.5%. The EC50 in test [4] is 126 nM. Also, in test [5], the “pIC50, Trypsin Assay, β4^R mutant” value was <4.52.
